From patent US20040067547A1, “Rapid method for detecting micro-organisms and evaluating antimicrobial activity” (priority 1998, published 2004)

Tested on: Streptococcus pneumoniae
Test: Antibiotic sensitivity testing by zeta potential measurement (ZETASIZER 2000)
Type: cell-based
Conditions: about 10^5 cells in growth medium with penicillin at 0.01 g/ml, incubated at 37° C. for 3 h; about 0 mV = dead cells, untreated −27.9 mV
Method: The following Example illustrates a particular embodiment of the invention: Streptococcus pneumoniae was grown for about 4 h in laked horse blood medium. Aliqouts, representing about 10^5 cells, were transferred to two tubes containing growth medium: one of these also contained penicillin at 0.01 g/ml. The zeta potential of both samples was measured using a ZETASIZER 2000 (RTM) from Malvern Instruments. The tubes were incubated at 37° C. for 3 h, and the zeta potential of each measured again. […] There is a clear difference in these profiles. In both Figures, the peak at 0 mV represents dead cells. The zeta potential of all dead micro-organisms is close to 0 mV: without wishing to be bound by a particular theory, it is believed that these changes are brought about by the vacuolation of the cells, resulting in the zeta potential decaying to about 0 mv. The other peak in FIG. 4 is believed also to be cells of S pneumoniae, but which are […].

penicillin
Mean Zeta Potential for S pneumoniae: −0.3 mV
